# Entries after “also recorded” stand apart in the source; their conditions may differ.
# How the values were obtained:
# [1] = Laboratory assessments (prolactin, lipids), Clinical Study One; format: in vivo, human
# From the text: METHOD: A 6-Week randomized, placebo-controlled, risperidone-referenced dose-finding study included 589 randomized patients with an acute exacerbation of schizophrenia (DSM-IV-TR). […] The change in the Positive and Negative Symptom Scale (PANSS) total score, from baseline to endpoint, was the primary outcome measure. Secondary efficacy measures included: PANSS positive, PANSS negative, PANSS general psychopathology (GPP) score, PANSS-derived Brief Psychiatric Rating Scale (BPRS) score, Clinical Global Impressions-Severity of Illness (CGI-S), CGI-Improvement (CGI-I) scores, and responder rates. Safety and tolerability evaluations included extrapyramidal symptoms (EPS), weight gain, lipid profile, and serum prolactin. Risperidone was included for assay sensitivity.
# [2] = test system: patients with chronic schizophrenia; assay: Adverse events incl. EPS TEAEs, Clinical Study Four; format: in vivo, human
# Description: OTHER SECONDARY OBJECTIVE: To evaluate the long-term safety and tolerability of bifeprunox versus placebo.
# METHODOLOGY: This study was a multinational, multicenter, randomized, double-blind, parallel-group, placebo-controlled, fixed-dose study. The study consisted of a 3- to 6-day antipsychotic-free run-in period, after which patients were randomised to 6 months of double-blind treatment with fixed doses of bifeprunox (20 mg/day (BX20) or 30 mg/day (BX30)) or placebo (PBO). Patients allocated to the BX groups were up-titrated from 0.25 mg/day over 7 days (BX20) or 8 days (BX30), and then continued on these doses for the remainder of the study. […] At predetermined time points, blood samples were obtained for drug concentration analysis of BX and its major metabolites (3′- and 4′-sulfate conjugates of BX), and pharmaco-economic assessments were performed.
structure (smiles),measurement,setting,value
"O=c1[nH]c2cccc(N3CCN(Cc4cccc(-c5ccccc5)c4)CC3)c2o1 [Bifeprunox, 7-[4-([1,1′-biphenyl]-3-ylmethyl)-1-piperazinyl]-2(3H)-benzoxazolone]",prolactin,"[1]; bifeprunox 5-20 mg, 6 weeks, vs placebo",decreased prolactin levels; also recorded: a decrease in prolactin compared with the placebo group
same,non-fasting triglycerides and total cholesterol compared to placebo,"[1]; bifeprunox, 6 weeks (Example 4)",statistically significant improvements
same,patients with TEAEs related to EPS that led to withdrawal,[2]; BX20,4 patients
same,weight decreased reported as a TEAE,[2]; BX20,8%
same,"AKATHISIA, %","[2]; BX20, APTS",(6.9) %
same,"Choreoathetosis, %","[2]; BX20, APTS",(1.9) %
same,"DYSKINESIA, %","[2]; BX20, APTS",(1.3) %
same,"Dystonia, %","[2]; BX20, APTS",(0.6) %
same,"EPS TEAEs: MUSCULOSKELETAL AND CONNECTIVE TISSUE DISORDERS, %","[2]; BX20, APTS",(0.6) %
same,"EPS TEAEs: NERVOUS SYSTEM DISORDERS, %","[2]; BX20, APTS",(10.1) %
same,"EXTRAPYRAMIDAL DISORDER, %","[2]; BX20, APTS",(0.6) %
same,"Muscle rigidity, %","[2]; BX20, APTS",(0.6) %
same,"Patients with EPS TEAEs, %","[2]; BX20, APTS",(10.1) %
same,"TREMOR, %","[2]; BX20, APTS",(0.6) %
same,proportion of patients with TEAEs related to EPS,"[2]; BX20, APTS",10%
same,patients with TEAEs related to EPS that led to withdrawal,[2]; BX30,9 patients
same,weight decreased reported as a TEAE,[2]; BX30,8%
same,weight increased reported as a TEAE,[2]; BX30,1.2%
same,"AKATHISIA, %","[2]; BX30, APTS",(4.7) %
same,"Athetosis, %","[2]; BX30, APTS",(0.6) %
same,"Choreoathetosis, %","[2]; BX30, APTS",(0.6) %
same,"DYSKINESIA, %","[2]; BX30, APTS",(6.4) %
same,"EPS TEAEs: MUSCULOSKELETAL AND CONNECTIVE TISSUE DISORDERS, %","[2]; BX30, APTS",(0.6) %
same,"EPS TEAEs: NERVOUS SYSTEM DISORDERS, %","[2]; BX30, APTS",(14.5) %
same,"EXTRAPYRAMIDAL DISORDER, %","[2]; BX30, APTS",(2.9) %
same,"Muscle rigidity, %","[2]; BX30, APTS",(0.6) %
same,"Patients with EPS TEAEs, %","[2]; BX30, APTS",(14.5) %
same,"TREMOR, %","[2]; BX30, APTS",(2.9) %
same,proportion of patients with TEAEs related to EPS,"[2]; BX30, APTS",15%

# — patent US20090068290A1, “BIFEPRUNOX DOSES FOR TREATING SCHIZOPHRENIA” (priority 2006, published 2009)
